Experiment: xn = mol fraction of the nth substance listed

Cc1cccc(C)c1 + CS(C)=O
viscosity [mPa·s], 101.3 kPa
Conditions | x2 = 0.1004 | x2 = 0.2027 | x2 = 0.3047 | x2 = 0.4044 | x2 = 0.5057 | x2 = 0.6045 | x2 = 0.705 | x2 = 0.803 | x2 = 0.9011
298.15 K | 0.631 | 0.7 | 0.782 | 0.877 | 0.99 | 1.116 | 1.269 | 1.45 | 1.68
303.15 K | 0.593 | 0.657 | 0.73 | 0.815 | 0.914 | 1.026 | 1.168 | 1.325 | 1.528
308.15 K | 0.561 | 0.617 | 0.684 | 0.76 | 0.85 | 0.952 | 1.076 | 1.219 | 1.397

Cc1ccc(O)cc1 + c1ccncc1
viscosity [mPa·s], 101 kPa
Conditions | x1 = 0.163 | x1 = 0.2353 | x1 = 0.3282 | x1 = 0.3907 | x1 = 0.4666 | x1 = 0.527 | x1 = 0.6065 | x1 = 0.6911 | x1 = 0.7846 | x1 = 0.881
293.15 K | 1.451 | 1.808 | 2.535 | 3.105 | 4.215 | 5.315 | 7.365 | 10.04 | 13.24 | 16.16
303.15 K | 1.363 | 1.628 | 2.115 | 2.565 | 3.31 | 4.08 | 5.265 | 6.635 | 7.97 | 9.26
313.15 K | 1.139 | 1.37 | 1.727 | 2.065 | 2.6 | 3.115 | 3.83 | 4.66 | 5.415 | 6.02

Nc1ccccc1Cl + CC(C)CO
viscosity [mPa·s], 101 kPa
Conditions | x1 = 0.0805 | x1 = 0.1856 | x1 = 0.2856 | x1 = 0.3751 | x1 = 0.4789 | x1 = 0.5761 | x1 = 0.6805 | x1 = 0.7859 | x1 = 0.8952
303.15 K | 2.81 | 3 | 3.16 | 3.29 | 3.42 | 3.53 | 3.63 | 3.71 | 3.78
308.15 K | 2.46 | 2.66 | 2.81 | 2.92 | 3.05 | 3.15 | 3.25 | 3.33 | 3.39
313.15 K | 2.16 | 2.35 | 2.5 | 2.61 | 2.73 | 2.83 | 2.93 | 2.99 | 3.01
318.15 K | 1.9 | 2.08 | 2.23 | 2.33 | 2.45 | 2.55 | 2.65 | 2.73 | 2.78

O=S1(=O)CCCC1 + CCCCO
viscosity [mPa·s], 101 kPa
Conditions | x1 = 0.1066 | x1 = 0.191 | x1 = 0.2871 | x1 = 0.3889 | x1 = 0.4851 | x1 = 0.5891 | x1 = 0.6937 | x1 = 0.7935 | x1 = 0.9023
303.15 K | 2.084 | 2.148 | 2.32 | 2.582 | 2.914 | 3.395 | 4.117 | 5.218 | 7.192
308.15 K | 1.855 | 1.912 | 2.06 | 2.291 | 2.59 | 3.028 | 3.676 | 4.65 | 6.369
313.15 K | 1.659 | 1.711 | 1.842 | 2.048 | 2.316 | 2.715 | 3.3 | 4.167 | 5.669

O=S1(=O)CCCC1 + CCc1ccccc1
viscosity [mPa·s]
Conditions | 101 kPa | 101.3 kPa
303.15 K, x2 = 0.9106 | 0.7155 | 0.7155
313.15 K, x2 = 0.7254 | 0.9235 | –
323.15 K, x2 = 0.7254 | 0.8125 | 0.8125
323.15 K, x2 = 0.8194 | 0.6653 | 0.6653

CCCCOCCOCCO + ClC(Cl)Cl
298.15 K, 101.33 kPa
Conditions | viscosity [mPa·s]
x1 = 0.0036 | 0.538
x1 = 0.013 | 0.559
x1 = 0.0198 | 0.572
x1 = 0.0347 | 0.607
x1 = 0.0576 | 0.674
x1 = 0.0854 | 0.755
x1 = 0.1232 | 0.882
x1 = 0.1802 | 1.118
x1 = 0.2156 | 1.281
x1 = 0.2883 | 1.65
x1 = 0.3513 | 2.01
x1 = 0.427 | 2.46
x1 = 0.486 | 2.828
x1 = 0.539 | 3.148
x1 = 0.6168 | 3.591
x1 = 0.6945 | 4.021
x1 = 0.7358 | 4.19
x1 = 0.7844 | 4.415
x1 = 0.8159 | 4.545
x1 = 0.859 | 4.758
x1 = 0.9079 | 4.913
x1 = 0.94 | 5.021
x1 = 0.9514 | 5.04
x1 = 0.9582 | 5.061
x1 = 0.9656 | 5.083
x2 = 0.0054 | 5.185

O=S1(=O)CCCC1 + C1COCCO1
viscosity [mPa·s], 101 kPa
Conditions | x1 = 0.0809 | x1 = 0.1742 | x1 = 0.2786 | x1 = 0.3855 | x1 = 0.4739 | x1 = 0.5744 | x1 = 0.6247 | x1 = 0.7169 | x1 = 0.8462 | x1 = 0.9062
303.15 K | 1.276 | 1.517 | 1.854 | 2.293 | 2.756 | 3.428 | 3.841 | 4.786 | 6.656 | 7.852
313.15 K | 1.086 | 1.284 | 1.558 | 1.912 | 2.28 | 2.809 | 3.13 | 3.861 | 5.275 | 6.164
323.15 K | 0.9369 | 1.104 | 1.332 | 1.622 | 1.922 | 2.348 | 2.605 | 3.182 | 4.278 | 4.942

OC1COCOC1 + OCC(O)CO
viscosity [mPa·s], 101 kPa
Conditions | x1 = 0.0998 | x1 = 0.2002 | x1 = 0.3 | x1 = 0.3996 | x1 = 0.5003 | x1 = 0.5984 | x1 = 0.7011 | x1 = 0.8002 | x1 = 0.9
298.15 K | 832.9 | 733.8 | 627.8 | 520 | 421.6 | 329.6 | 242.5 | 168.5 | 92.07
308.15 K | 378.7 | 330.3 | 278.4 | 227 | 181 | 134.8 | 99.8 | 67.79 | 40.63
318.15 K | 190 | 163.4 | 139 | 110.6 | 85.95 | 62.08 | 44.85 | 32.54 | 20.88

Cc1cccc(C)c1 + CC(C)CC(C)(C)C
308.15 K, 101 kPa
Conditions | viscosity [mPa·s]
x2 = 0.0651 | 0.5188
x2 = 0.1364 | 0.5018
x2 = 0.2067 | 0.4888
x2 = 0.3021 | 0.4746
x2 = 0.392 | 0.462
x2 = 0.4939 | 0.4518
x2 = 0.6007 | 0.4435
x2 = 0.7283 | 0.4385
x2 = 0.859 | 0.4352

From the CheMixHub viscosity set
